Values joined by “and” are separate entries in the source; they are usually repeats but may differ in a detail not shown here. Equal values may be shown once.
Tested on: WM3248 melanoma cells, 486 antibodies
Assay: Reverse phase protein arrays (RPPA);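 for CA9.R.C RPPA level: ratio of treated to vehicle (0 µM) normalized linear protein signal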;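 for CD171.M.V RPPA level: ratio of treated to vehicle (0 µM) normalized linear protein signal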
Format: cell-based, Human
Conditions: 10 uM
From the text: Pellets were snap frozen in liquid nitrogen and shipped to MD Anderson Cancer Center core RPPA facility for RPPA analysis (Table S5). Three biological replicates for each sample were generated.
Nomenclatures on the RPPA heatmaps: name_of_antibody.species_of_antibody.status_of_antibody. V - antibody validated; C - validation of antibody in progress; Q - antibody nonspecific; E – under evaluation; antibodies raised in M - mouse, G - goat, R - rabbit, or T - rat.

**Q.** With `CN(C)c1cccc(Nc2cc(-c3ccccc3)nc(C3CCNCC3)n2)c1` [ARN22089, N1,N1-dimethyl-N3-(6-phenyl-2-(piperidin-4-yl)pyrimidin-4-yl)benzene-1,3-diamine] as the molecule, how does the “RPPA signal, antibody VEGFR.2_pY1175.R.C, Average” value (average of 3 replicates) read?
**A.** 1.049

**Q.** And the “RPPA signal, antibody VHL.EPPK1.M.C, Average” value (average of 3 replicates)?
**A.** 1.196

**Q.** And the “RPPA signal, antibody VHL.R.C, Average” value (average of 3 replicates)?
**A.** 1.035

**Q.** What about the “RPPA signal, antibody Vinculin.M.V, Average” value (average of 3 replicates) of the same molecule?
**A.** 0.966

**Q.** And the “RPPA signal, antibody WIPI1.R.C, Average” value (average of 3 replicates)?
**A.** 1.121

**Q.** And the “RPPA signal, antibody WIPI2.R.C, Average” value (average of 3 replicates)?
**A.** 0.943

**Q.** And the “RPPA signal, antibody WTAP.R.V, Average” value (average of 3 replicates)?
**A.** 1.119

**Q.** And the “RPPA signal, antibody Wee1.R.C, Average” value (average of 3 replicates)?
**A.** 1.020

**Q.** And the “RPPA signal, antibody Wee1_pS642.R.C, Average” value (average of 3 replicates)?
**A.** 0.998

**Q.** What about the “RPPA signal, antibody XBP.1.G.C, Average” value (average of 3 replicates) of the same molecule?
**A.** 1.065

**Q.** What about the “RPPA signal, antibody XIAP.R.C, Average” value (average of 3 replicates) of the same molecule?
**A.** 1.012

**Q.** And the “RPPA signal, antibody XPA.M.V, Average” value (average of 3 replicates)?
**A.** 1.058

**Q.** And the “RPPA signal, antibody XRCC1.R.C, Average” value (average of 3 replicates)?
**A.** 1.060

**Q.** What about the “RPPA signal, antibody YAP_pS127.R.V, Average” value (average of 3 replicates) of the same molecule?
**A.** 0.978

**Q.** What about the “RPPA signal, antibody YB1_pS102.R.V, Average” value (average of 3 replicates) of the same molecule?
**A.** 0.958

**Q.** And the “RPPA signal, antibody YES1.R.V, Average” value (average of 3 replicates)?
**A.** 1.020

**Q.** What about the “RPPA signal, antibody YTHDF2.R.V, Average” value (average of 3 replicates) of the same molecule?
**A.** 0.990

**Q.** And the “RPPA signal, antibody YTHDF3.R.C, Average” value (average of 3 replicates)?
**A.** 1.018

**Q.** And the “RPPA signal, antibody ZAP.70.R.V, Average” value (average of 3 replicates)?
**A.** 1.001

**Q.** What about the “RPPA signal, antibody ZEB1.R.V, Average” value (average of 3 replicates) of the same molecule?
**A.** 1.024

**Q.** What about the “RPPA signal, antibody TSC1.R.C” value (individual replicates) of the same molecule?
**A.** 0.828 and 0.939

**Q.** And the “RPPA signal, antibody TTF1.R.V” value (individual replicates)?
**A.** 0.920 and 0.873 and 1.035

**Q.** And the “RPPA signal, antibody TUFM.R.V” value (individual replicates)?
**A.** 1.384 and 1.533

**Q.** And the “RPPA signal, antibody Tuberin.R.V” value (individual replicates)?
**A.** 1.063 and 0.958 and 0.778

**Q.** And the “RPPA signal, antibody Tuberin_pT1462.R.V” value (individual replicates)?
**A.** 1.389 and 0.896

**Q.** What about the “RPPA signal, antibody Twist.M.C” value (individual replicates) of the same molecule?
**A.** 1.022 and 1.114

**Q.** What about the “RPPA signal, antibody Tyro3.R.V” value (individual replicates) of the same molecule?
**A.** 1.207 and 1.432 and 1.052

**Q.** What about the “RPPA signal, antibody U.Histone.H2B.R.C” value (individual replicates) of the same molecule?
**A.** 0.675 and 0.846 and 0.974

**Q.** And the “RPPA signal, antibody UBAC1.R.V” value (individual replicates)?
**A.** 0.909 and 0.974 and 0.962

**Q.** What about the “RPPA signal, antibody UBQLN4.M.C” value (individual replicates) of the same molecule?
**A.** 1.002 and 0.908 and 1.014

**Q.** And the “RPPA signal, antibody UGT1A.M.V” value (individual replicates)?
**A.** 1.078 and 1.131 and 1.024

**Q.** And the “RPPA signal, antibody ULK1_pS757.R.C” value (individual replicates)?
**A.** 0.907 and 0.952

**Q.** And the “RPPA signal, antibody UQCRC2.M.C” value (individual replicates)?
**A.** 0.984 and 1.001 and 0.779

**Q.** And the “RPPA signal, antibody UVRAG.R.C” value (individual replicates)?
**A.** 0.941 and 0.945 and 1.016

**Q.** What about the “RPPA signal, antibody VASP.R.V” value (individual replicates) of the same molecule?
**A.** 0.853 and 0.873 and 0.935

**Q.** What about the “RPPA signal, antibody VAV1.R.C” value (individual replicates) of the same molecule?
**A.** 0.917 and 0.930 and 0.971

**Q.** What about the “RPPA signal, antibody VEGFR.2.R.V” value (individual replicates) of the same molecule?
**A.** 0.830 and 0.863 and 1.064

**Q.** What about the “RPPA signal, antibody VEGFR.2_pY1175.R.C” value (individual replicates) of the same molecule?
**A.** 1.135 and 1.035 and 0.978

**Q.** And the “RPPA signal, antibody VHL.EPPK1.M.C” value (individual replicates)?
**A.** 1.361 and 1.047

**Q.** What about the “RPPA signal, antibody VHL.R.C” value (individual replicates) of the same molecule?
**A.** 1.048 and 1.060 and 0.997

**Q.** And the “RPPA signal, antibody Vinculin.M.V” value (individual replicates)?
**A.** 0.834 and 1.032 and 1.034

**Q.** What about the “RPPA signal, antibody WIPI1.R.C” value (individual replicates) of the same molecule?
**A.** 1.084 and 1.260 and 1.018

**Q.** What about the “RPPA signal, antibody WIPI2.R.C” value (individual replicates) of the same molecule?
**A.** 1.004 and 0.919 and 0.906

**Q.** And the “RPPA signal, antibody WTAP.R.V” value (individual replicates)?
**A.** 0.973 and 1.303 and 1.081

**Q.** What about the “RPPA signal, antibody Wee1.R.C” value (individual replicates) of the same molecule?
**A.** 0.837 and 1.193 and 1.031

**Q.** What about the “RPPA signal, antibody Wee1_pS642.R.C” value (individual replicates) of the same molecule?
**A.** 0.842 and 1.057

**Q.** What about the “RPPA signal, antibody XBP.1.G.C” value (individual replicates) of the same molecule?
**A.** 1.054 and 1.065 and 1.076

**Q.** And the “RPPA signal, antibody XIAP.R.C” value (individual replicates)?
**A.** 0.980 and 0.995 and 1.063

**Q.** What about the “RPPA signal, antibody XPA.M.V” value (individual replicates) of the same molecule?
**A.** 0.998 and 1.083

**Q.** What about the “RPPA signal, antibody XPF.R.C” value (individual replicates) of the same molecule?
**A.** 1.061 and 1.058 and 1.015

**Q.** What about the “RPPA signal, antibody XRCC1.R.C” value (individual replicates) of the same molecule?
**A.** 1.098 and 1.017

**Q.** What about the “RPPA signal, antibody YAP.R.C” value (individual replicates) of the same molecule?
**A.** 1.046 and 1.136 and 1.017

**Q.** And the “RPPA signal, antibody YAP_pS127.R.V” value (individual replicates)?
**A.** 0.857 and 1.020 and 1.056

**Q.** What about the “RPPA signal, antibody YB1_pS102.R.V” value (individual replicates) of the same molecule?
**A.** 0.792 and 0.995

**Q.** What about the “RPPA signal, antibody YES1.R.V” value (individual replicates) of the same molecule?
**A.** 0.963 and 1.023

**Q.** And the “RPPA signal, antibody YTHDF2.R.V” value (individual replicates)?
**A.** 0.973 and 0.926

**Q.** What about the “RPPA signal, antibody YTHDF3.R.C” value (individual replicates) of the same molecule?
**A.** 1.046 and 1.052 and 0.954

**Q.** What about the “RPPA signal, antibody ZAP.70.R.V” value (individual replicates) of the same molecule?
**A.** 0.965 and 0.999

**Q.** And the “RPPA signal, antibody ZEB1.R.V” value (individual replicates)?
**A.** 0.993 and 0.988

**Q.** What about the “C.Raf.R.C RPPA level” value (replicates) of the same molecule?
**A.** 1.022 and 0.897 and 0.901

**Q.** And the “C.Raf_pS338.R.V RPPA level” value (replicates)?
**A.** 0.937 and 0.962

**Q.** What about the “CA9.R.C RPPA level” value (replicates) of the same molecule?
**A.** 0.963 and 0.920 and 1.058

**Q.** What about the “CD2.M.C RPPA level” value (replicates) of the same molecule?
**A.** 1.046 and 1.013

**Q.** And the “CD4.R.V RPPA level” value (replicates)?
**A.** 0.841 and 0.982 and 0.984

**Q.** And the “CD5.M.C RPPA level” value (replicates)?
**A.** 1.032 and 1.016

**Q.** What about the “CD20.R.C RPPA level” value (replicates) of the same molecule?
**A.** 0.915 and 1.113 and 1.048

**Q.** What about the “CD26.R.V RPPA level” value (replicates) of the same molecule?
**A.** 0.862 and 0.937 and 1.046

**Q.** What about the “CD29.M.V RPPA level” value (replicates) of the same molecule?
**A.** 1.013 and 0.983 and 1.052

**Q.** And the “CD31.M.V RPPA level” value (replicates)?
**A.** 1.033 and 1.057 and 1.013

**Q.** And the “CD38.R.C RPPA level” value (replicates)?
**A.** 0.895 and 0.963

**Q.** What about the “CD44.R.C RPPA level” value (replicates) of the same molecule?
**A.** 1.029 and 1.050

**Q.** And the “CD45.M.V RPPA level” value (replicates)?
**A.** 1.006 and 1.019

**Q.** And the “CD49b.M.V RPPA level” value (replicates)?
**A.** 1.003 and 0.999

**Q.** And the “CD68.M.C RPPA level” value (replicates)?
**A.** 1.022 and 1.011

**Q.** What about the “CD74.M.V RPPA level” value (replicates) of the same molecule?
**A.** 0.984 and 1.053

**Q.** And the “CD134.R.V RPPA level” value (replicates)?
**A.** 1.005 and 1.057 and 0.995

**Q.** And the “CD171.M.V RPPA level” value (replicates)?
**A.** 0.591 and 0.987 and 1.115

**Q.** What about the “CDK1_pT14.R.C RPPA level” value (replicates) of the same molecule?
**A.** 1.201 and 0.649 and 0.946

**Q.** What about the “CDK9.R.V RPPA level” value (replicates) of the same molecule?
**A.** 1.078 and 0.919

**Q.** What about the “CDKN2A.R.C RPPA level” value (replicates) of the same molecule?
**A.** 1.006 and 1.160

**Q.** What about the “CDT1.R.V RPPA level” value (replicates) of the same molecule?
**A.** 0.973 and 1.157 and 1.014

From PMC9127750, “Structure-based design of CDC42 effector interaction inhibitors for the treatment of cancer” (Cell reports, 2022)
